Laboratory results published in patent US20200361871A1 (Enterprise Therapeutics Ltd., priority 2018, published 2020).

Target: human TMEM16A (TMEM16Aabc variant) (Homo sapiens, UniProt Q5XXA6, DEL476-501, form not given)
Experiment: Automated whole-cell patch clamp (Qpatch) TMEM16A potentiator assay in FRT cells stably expressing human TMEM16A
Format: cell-based
Details: for % Potentiation @ 3.33 μM Avg: 3.33 μM solution of test compound, percentage increase of baseline TMEM16A current; for EC50: calculated EC50, Qpatch TMEM16A current at +70 mV
Outline: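 FRT cells stably expressing human TMEM16Aabc were recorded by automated whole-cell patch clamp, with intracellular Ca2+ buffered for ~EC20 activation, holding −70 mV and step to +70 mV at 0.05 Hz. Compound was applied cumulatively, 5 min per concentration. Peak current increase as % of baseline was fitted to give EC50 and maximum efficacy.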

Chain of human TMEM16A (TMEM16Aabc variant) (Q5XXA6 with tags, fused parts or gaps DEL476-501): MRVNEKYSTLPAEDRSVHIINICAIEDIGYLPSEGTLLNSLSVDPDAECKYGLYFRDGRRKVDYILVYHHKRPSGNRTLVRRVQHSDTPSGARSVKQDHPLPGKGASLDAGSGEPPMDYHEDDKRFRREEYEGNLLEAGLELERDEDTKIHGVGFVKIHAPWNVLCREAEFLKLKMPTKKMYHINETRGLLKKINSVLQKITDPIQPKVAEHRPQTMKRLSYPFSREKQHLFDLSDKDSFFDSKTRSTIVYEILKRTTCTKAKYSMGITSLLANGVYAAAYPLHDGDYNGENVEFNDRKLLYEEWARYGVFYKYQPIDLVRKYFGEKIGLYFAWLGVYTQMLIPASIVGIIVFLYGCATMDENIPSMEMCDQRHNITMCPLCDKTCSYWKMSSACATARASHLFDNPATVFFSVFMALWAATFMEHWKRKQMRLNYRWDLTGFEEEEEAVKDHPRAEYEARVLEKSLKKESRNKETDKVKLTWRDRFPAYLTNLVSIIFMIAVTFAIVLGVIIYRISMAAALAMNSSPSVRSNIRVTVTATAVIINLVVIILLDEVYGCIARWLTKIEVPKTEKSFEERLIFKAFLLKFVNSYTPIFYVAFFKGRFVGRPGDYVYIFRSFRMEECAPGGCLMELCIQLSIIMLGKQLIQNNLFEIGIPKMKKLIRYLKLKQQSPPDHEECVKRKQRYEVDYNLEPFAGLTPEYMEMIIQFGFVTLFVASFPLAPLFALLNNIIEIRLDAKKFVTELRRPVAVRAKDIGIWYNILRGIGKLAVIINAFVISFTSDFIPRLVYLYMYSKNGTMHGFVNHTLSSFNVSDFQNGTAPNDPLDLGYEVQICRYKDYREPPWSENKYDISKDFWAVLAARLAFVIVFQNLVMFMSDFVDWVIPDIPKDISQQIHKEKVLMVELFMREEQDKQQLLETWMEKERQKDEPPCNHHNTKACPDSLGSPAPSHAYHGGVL

SMILES	% Potentiation @ 3.33 μM Avg	EC50
CCC(C)(C)NC(=O)c1cccc(NC(=O)Cc2ccc(F)cc2O)c1 [Example 2.13, N-(1,1-Dimethylpropyl)-3-[[2-(4-fluoro-2-hydroxy-phenyl)acetyl]amino] benzamide]	126%	460 nM
CC(C)NC(=O)c1cc(NC(=O)Cc2cc(Cl)ccc2O)ccn1 [Example 7.7, 4-[[2-(5-Chloro-2-hydroxy-phenyl)acetyl]amino]-N-isopropyl-pyridine-2-carboxamide]	234%	130 nM
CC1(NC(=O)c2cc(NC(=O)Cc3cc(F)ccc3O)ccn2)CCC1 [Example 48, 4-[[2-(5-Fluoro-2-hydroxy-phenyl)acetyl]amino]-N-(1-methylcyclobutyl)pyridine-2-carboxamide]	195%	100 nM
CC(C)(CCNCC(F)(F)F)NC(=O)c1cc(NC(=O)Cc2cc(Cl)ccc2O)ccn1 [Example 43, 4-[[2-(5-Chloro-2-hydroxy-phenyl)acetyl]amino]-N-[1,1-dimethyl-3-(2,2,2-trifluoroethylamino)propyl]pyridine-2-carboxamide]	174%	700 nM
CC(C)(C)NC(=O)c1cc(NC(=O)Cc2cc(Cl)ccc2O)ccn1 [Example 3, N-tert-Butyl-4-[[2-(5-chloro-2-hydroxy-phenyl)acetyl]amino]pyridine-2-carboxamide]	287%	110 nM
CC(C)(C#N)NC(=O)c1cc(NC(=O)CCC2CCCCC2)ccn1 [Example 83.5, N-(1-Cyano-1-methyl-ethyl)-4-(3-cyclohexylpropanoylamino)pyridine-2-carboxamide]	185%	
CC1(NC(=O)c2cc(NC(=O)Cc3cc(Cl)ccc3O)ccn2)CCOCC1 [Example 7.9, 4-[[2-(5-Chloro-2-hydroxy-phenyl)acetyl]amino]-N-(4-methyltetrahydropyran-4-yl)pyridine-2-carboxamide]	288%	230 nM
CC(C)(C)C(C)(C)NC(=O)c1cccc(NC(=O)Cc2cc(Cl)ccc2O)c1 [Example 7, 3-[[2-(5-Chloro-2-hydroxy-phenyl)acetyl]amino]-N-(1,1,2,2-tetramethylpropyl) benzamide]	153%	650 nM
CC(C)(CN1CCOCC1)NC(=O)c1cc(NC(=O)Cc2cc(Cl)ccc2O)ccn1 [Example 32.6, 4-[[2-(5-Chloro-2-hydroxy-phenyl)acetyl]amino]-N-(1,1-dimethyl-2-morpholino-ethyl)pyridine-2-carboxamide]	153%	820 nM
CC(C#N)(CO)NC(=O)c1cc(NC(=O)Cc2ccccc2F)ccn1 (stereo not shown) [Example 60.1, N-(1-Cyano-2-hydroxy-1-methyl-ethyl)-4-[[2-(2-fluorophenyl)acetyl]amino]pyridine-2-carboxamide]	60%	
CCC(C)(C)NC(=O)c1cccc(NC(=O)Cc2cc(Cl)ccc2O)c1 [Example 1.5, 3-[[2-(5-Chloro-2-hydroxy-phenyl)acetyl]amino]-N-(1,1-dimethylpropyl)benzamide]	149%	340 nM
N#CC1(NC(=O)c2cc(NC(=O)Cc3cc(Cl)ccc3O)ccn2)CCOCC1 [Example 31, 4-[[2-(5-Chloro-2-hydroxy-phenyl)acetyl]amino]-N-(4-cyanotetrahydropyran-4-yl)pyridine-2-carboxamide]	223%	120 nM
COC(C)c1cc(Cl)cc(CC(=O)Nc2ccnc(C(=O)NC(C)(C)C)c2)c1O (stereo not shown) [Example 62, N-tert-Butyl-4-[[2-[5-chloro-2-hydroxy-3-(1-methoxyethyl)phenyl]acetyl]amino] pyridine-2-carboxamide]	99%	
CC(O)c1cccc(CC(=O)Nc2ccnc(C(=O)NC(C)(C)C)c2)c1 (stereo not shown) [Example 54, N-tert-Butyl-4-[[2-[3-(1-hydroxyethyl)phenyl]acetyl]amino]pyridine-2-carboxamide]	62%	
Cc1cc(NC(=O)Cc2cc(Cl)ccc2O)cc(C(=O)NC(C)(C)C)c1 [Example 9.1, N-tert-Butyl-3-[[2-(5-chloro-2-hydroxy-phenyl)acetyl]amino]-5-methyl-benzamide]	77%	4620 nM
Cc1nn(-c2ccccc2)cc1C(=O)Nc1ccnc(C(=O)NC(C)(C)C#N)c1 [Example 83.24, N-(1-Cyano-1-methyl-ethyl)-4-[(3-methyl-1-phenyl-pyrazole-4-carbonyl)amino]pyridine-2-carboxamide]	55%	
COC(=O)c1ccc(O)c(CC(=O)Nc2ccnc(C(=O)NC(C)(C)C)c2)c1 [Example 13, Methyl 3-[2-[[2-(tert-butylcarbamoyl)-4-pyridyl]amino]-2-oxo-ethyl]-4-hydroxy-benzoate]	245%	1000 nM

SMILES	% Potentiation @ 3.33 μM Avg	EC50
C#CC(C)(C)NC(=O)c1cc(NC(=O)Cc2cccc3[nH]ncc23)ccn1 [Example 79.2, N-(1,1-Dimethylprop-2-ynyl)-4-[[2-(1H-indazol-4-yl)acetyl]amino]pyridine-2-carboxamide]	211%	
O=C(Cc1cc(F)ccc1O)Nc1ccnc(C(=O)NC23CCC(F)(C2)C3)c1 [Example 81.4, N-(4-Fluoro-1-bicyclo[2.1.1]hexanyl)-4-[[2-(5-fluoro-2-hydroxy-phenyl)acetyl]amino] pyridine-2-carboxamide]	122%	40 nM
CC(C)(C)NC(=O)c1cc(NC(=O)Cc2cccc(O)c2)ccn1 [Example 3.12b, N-tert-Butyl-4-[[2-(3-hydroxyphenyl)acetyl]amino]pyridine-2-carboxamide]	143%	340 nM
CC(C)(C)NC(=O)c1cccc(NC(=O)Cc2cccc(F)c2O)c1 [Example 2.2, N-tert-Butyl-3-[[2-(3-fluoro-2-hydroxy-phenyl)acetyl]amino]benzamide]	158%	1610 nM
CC(O)c1ccc(O)c(CC(=O)Nc2ccnc(C(=O)NC(C)(C)C)c2)c1 (stereo not shown) [Example 66, N-tert-Butyl-4-[[2-[2-hydroxy-5-(1-hydroxyethyl)phenyl]acetyl]amino]pyridine-2-carboxamide]	130%	
CC(C)(C#N)NC(=O)c1cc(NC(=O)C2(C)CCCC2)ccn1 [Example 83.4, N-(1-Cyano-1-methyl-ethyl)-4-[(1-methylcyclopentanecarbonyl)amino]pyridine-2-carboxamide]	58%	
CC(C)(C)NC(=O)c1cc(NC(=O)Cc2ccc(Cl)c(Cl)c2)ccn1 [Example 5.8, N-tert-Butyl-4-[[2-(3,4-dichlorophenyl)acetyl]amino]pyridine-2-carboxamide]	116%	460 nM
C#CC(C)(C)NC(=O)c1cc(NC(=O)Cc2ccncc2Cl)ccn1 [Example 22.3, 4-[[2-(3-Chloro-4-pyridyl)acetyl]amino]-N-(1,1-dimethylprop-2-ynyl)pyridine-2-carboxamide]	132%	
CC(C)(CO)NC(=O)c1cc(NC(=O)Cc2cc(Cl)ccc2O)ccn1 [Example 32.7, 4-[[2-(5-Chloro-2-hydroxy-phenyl)acetyl]amino]-N-(2-hydroxy-1,1-dimethyl-ethyl)pyridine-2-carboxamide]	111%	200 nM
N#CC1(NC(=O)c2cc(NC(=O)Cc3cccc(Cl)c3)ccn2)CC1 [Example 23.1, 4-[[2-(3-Chlorophenyl)acetyl]amino]-N-(1-cyanocyclopropyl)pyridine-2-carboxamide]	150%	
N#CC1(NC(=O)c2cc(NC(=O)Cc3ccc4ncccc4c3)ccn2)CCOCC1 [Example 23.16, N-(4-Cyanotetrahydropyran-4-yl)-4-[[2-(6-quinolyl)acetyl]amino]pyridine-2-carboxamide]	68%	1400 nM
CC(C)(C)NC(=O)c1cc(NC(=O)Cc2cccc(O)c2Cl)ccn1 [Example 3.15b, N-tert-Butyl-4-[[2-(2-chloro-3-hydroxy-phenyl)acetyl]amino]pyridine-2-carboxamide]	127%	
CC(C)(C)NC(=O)c1cc(NC(=O)Cc2ccco2)ccn1 [Example 5.4, N-tert-Butyl-4-[[2-(2-furyl)acetyl]amino] pyridine-2-carboxamide]	57%	
Cc1nc(-c2ccccc2)sc1C(=O)Nc1ccnc(C(=O)NC(C)(C)C#N)c1 [Example 83.28, N-[2-[(1-Cyano-1-methyl-ethyl)carbamoyl]-4-pyridyl]-4-methyl-2-phenyl-thiazole-5-carboxamide]	20%	
COc1cc(F)ccc1CC(=O)Nc1ccnc(C(=O)NC(C)(C)C)c1 [Example 5.2, N-tert-Butyl-4-[[2-(4-fluoro-2-methoxy-phenyl)acetyl]amino]pyridine-2-carboxamide]	63%	
CC(C)C(C)(C#N)NC(=O)c1cc(NC(=O)Cc2cc(Cl)ccc2O)ccn1 (stereo not shown) [Example 37, 4-[[2-(5-Chloro-2-hydroxy-phenyl)acetyl]amino]-N-(1-cyano-1,2-dimethyl-propyl)pyridine-2-carboxamide]	352%	120 nM
